TGI and GI50 data for 16 compounds are collected here from PubChem BioAssay (NCI).

Some test systems named below: HCC-2998 colon; HOP-62 NSCLC; HS 578T breast; MDA-MB-231 breast; NCI-H226 lung; OVCAR-5 ovarian; SF-539 CNS; SK-MEL-5 melanoma; SNB-19 CNS; UACC-62 melanoma.
Holding throughout (test): NCI anticancer screen, dose series, 48 h

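Briefly, cells in 96-well plates were exposed to five compound concentrations for 48 h, and endpoints were estimated by linear interpolation. GI50 = concentration required for 50% inhibition of growth. The concentration for full growth arrest is given as TGI.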 Some results are limits rather than exact numbers.

Take `C=C(C(=O)OC)c1cc2ccccc2n1S(=O)(=O)c1ccccc1`: the TGI in the assay with HCC-2998 colon is 8.35 µM; with HOP-62 NSCLC, 11.1 µM; with HS 578T breast, 18.8 µM; in the assay with MDA-MB-231 breast it was 6.16 µM; in the assay on NCI-H226 lung it was 7.22 µM; with OVCAR-5 ovarian it was 21.7 µM. In addition, the TGI was 3.66 µM with SF-539 CNS, 5.36 µM in the assay on SK-MEL-5 melanoma, 34 µM with SNB-19 CNS and 15 µM with UACC-62 melanoma.

Turning to `S=C(Nc1ccccn1)Nc1ccccc1Cl`, the TGI was over 100 µM in the assay on HCC-2998 colon; over 100 µM with HOP-62 NSCLC; over 52.2 µM in the assay with HS 578T breast; over 100 µM in the assay on MDA-MB-231 breast; over 100 µM in the assay on NCI-H226 lung; over 100 µM in the assay with OVCAR-5 ovarian. In addition, the TGI is over 100 µM in the assay with SF-539 CNS, over 100 µM in the assay on SK-MEL-5 melanoma, over 31.6 µM in the assay on SNB-19 CNS and over 100 µM in the assay on UACC-62 melanoma.

As to `O=C(OCc1ccccc1)N1CCN(C(=O)OCc2ccccc2)CCN(C(=O)OCc2ccccc2)CCN(C(=O)OCc2ccccc2)CCN(C(=O)OCc2ccccc2)CC1`, the TGI in the assay on HCC-2998 colon, with HOP-62 NSCLC, in the assay with HS 578T breast, with MDA-MB-231 breast, in the assay with NCI-H226 lung and in the assay with OVCAR-5 ovarian was over 100 µM throughout. Also, the TGI with SF-539 CNS was over 100 µM; in the assay with SK-MEL-5 melanoma, 33.3 µM; with SNB-19 CNS, over 100 µM; in the assay on UACC-62 melanoma, over 100 µM.

Take `Clc1ncc(Cl)c(Cl)n1`: the TGI in the assay with HCC-2998 colon came out at 15.1 µM; in the assay with HOP-62 NSCLC, 39.4 µM; with HS 578T breast, 14.9 µM; in the assay on MDA-MB-231 breast, 7.82 µM; with NCI-H226 lung, 19 µM; with OVCAR-5 ovarian, 34.2 µM. Moreover, the TGI with SF-539 CNS was 24.6 µM; with SK-MEL-5 melanoma, 12.7 µM; in the assay with SNB-19 CNS it was 10.3 µM; in the assay with UACC-62 melanoma it was 4.42 µM.

For `COc1ccc2cc(C(=O)NCCCNC(=O)c3ccc4cc(OC)ccc4c3)ccc2c1`, the TGI in the assay on HCC-2998 colon is over 100 µM; with HOP-62 NSCLC, 42.1 µM; with HS 578T breast it was over 100 µM; with MDA-MB-231 breast, over 74.4 µM; with NCI-H226 lung, over 100 µM; in the assay on OVCAR-5 ovarian it was over 100 µM. In addition, the TGI in the assay with SF-539 CNS is 7.99 µM; with SK-MEL-5 melanoma, over 100 µM; in the assay on SNB-19 CNS, 30.6 µM; with UACC-62 melanoma, over 100 µM.

Consider `c1ccc(-c2cc(-c3cccs3)c(-c3cccs3)o2)cc1`, for which the TGI in the assay with HCC-2998 colon, with HOP-62 NSCLC, in the assay on HS 578T breast, in the assay on MDA-MB-231 breast, in the assay with NCI-H226 lung and in the assay on OVCAR-5 ovarian was over 100 µM each time. The TGI in the assay with SF-539 CNS, in the assay on SK-MEL-5 melanoma, in the assay with SNB-19 CNS and in the assay with UACC-62 melanoma was over 100 µM throughout.

For `Cn1c(=O)c2c(nc(Nc3ccc(Cl)cc3)n3c(=O)n(-c4ccccc4)c(=O)n23)n(C)c1=O`, the TGI in the assay on HCC-2998 colon, in the assay on HOP-62 NSCLC, in the assay with HS 578T breast, in the assay on MDA-MB-231 breast, in the assay with NCI-H226 lung and in the assay with OVCAR-5 ovarian was over 100 µM each time. For the same compound, the TGI in the assay on SF-539 CNS, in the assay on SK-MEL-5 melanoma, with SNB-19 CNS and with UACC-62 melanoma was over 100 µM throughout.

On to `CCCCCCCCCCCCCCCCCCOCC(COP(=O)([O-])OCC[N+](C)(C)C)OC` (stereo not given), for which the TGI was 9.93 µM in the assay on HCC-2998 colon; over 58.9 µM in the assay with HOP-62 NSCLC; over 100 µM with HS 578T breast; over 100 µM in the assay on MDA-MB-231 breast; 44.7 µM in the assay on NCI-H226 lung; 37 µM in the assay with OVCAR-5 ovarian. In addition, the TGI was over 70.2 µM with SF-539 CNS, 62.9 µM with SK-MEL-5 melanoma, 47.1 µM with SNB-19 CNS and 47.1 µM in the assay with UACC-62 melanoma.

As to `CC1(C)CCC(=O)NC1CC(=O)CC1NC(=O)CCC1(C)C` (stereo not given), the TGI in the assay on HCC-2998 colon, with HOP-62 NSCLC, in the assay with HS 578T breast, in the assay on MDA-MB-231 breast, with NCI-H226 lung and in the assay with OVCAR-5 ovarian was over 100 µM in each case. The TGI with SF-539 CNS, in the assay with SK-MEL-5 melanoma, with SNB-19 CNS and in the assay on UACC-62 melanoma was over 100 µM throughout.

On to `Clc1nc(Cl)c(CBr)c(Cl)n1`, for which the TGI is 30.8 µM in the assay with HCC-2998 colon; 9.72 µM in the assay with HOP-62 NSCLC; over 56.8 µM in the assay with HS 578T breast; 4.04 µM with MDA-MB-231 breast; over 51.7 µM with NCI-H226 lung; 15 µM in the assay with OVCAR-5 ovarian. In addition, the TGI in the assay on SF-539 CNS came out at 7.76 µM; in the assay with SK-MEL-5 melanoma it was 8.46 µM; in the assay on SNB-19 CNS, 33.3 µM; in the assay on UACC-62 melanoma it was 11.4 µM.

In the case of `NC1CC(=O)c2sccc21` (stereo not given), the TGI in the assay with HCC-2998 colon, in the assay on HOP-62 NSCLC, in the assay on HS 578T breast, in the assay with MDA-MB-231 breast, in the assay on NCI-H226 lung and with OVCAR-5 ovarian was over 100 µM in each case. Further, the TGI in the assay with SF-539 CNS, in the assay with SK-MEL-5 melanoma, in the assay on SNB-19 CNS and with UACC-62 melanoma was over 100 µM throughout.

Take `CC(=O)N1c2ccccc2C(C)C1c1[nH]c2ccccc2c1C` (stereo not given): the TGI was determined as 34 µM in the assay on HCC-2998 colon; 36.6 µM in the assay on HOP-62 NSCLC; 42.4 µM in the assay with HS 578T breast; 53.5 µM with MDA-MB-231 breast; 72.3 µM with NCI-H226 lung; 34 µM in the assay with OVCAR-5 ovarian. The TGI in the assay with SF-539 CNS was 27.2 µM; in the assay on SK-MEL-5 melanoma it was 28.3 µM; in the assay with SNB-19 CNS it was over 100 µM; in the assay with UACC-62 melanoma, 48.9 µM.

Consider `O=C(N/N=C\c1ccccc1)Nc1cccc2ccccc12`, for which the TGI in the assay on HCC-2998 colon was over 100 µM; in the assay with HOP-62 NSCLC, 37.2 µM; in the assay with HS 578T breast, 66.7 µM; in the assay with MDA-MB-231 breast it was over 100 µM; with NCI-H226 lung, 83.6 µM; in the assay on OVCAR-5 ovarian, over 100 µM. Besides, the TGI in the assay on SF-539 CNS is over 100 µM; with SK-MEL-5 melanoma, 24.4 µM; in the assay with SNB-19 CNS, over 100 µM; with UACC-62 melanoma it was over 100 µM.

For `Oc1ccc(C#CCOc2ccccc2)cc1CNCCN(Cc1ccccn1)Cc1ccccn1`, the GI50 in the assay with HCC-2998 colon was 1.65 µM; in the assay on HOP-62 NSCLC, 0.762 µM; in the assay on HS 578T breast, 1.69 µM; in the assay with MDA-MB-231 breast, 1.38 µM; in the assay with NCI-H226 lung it was 1.34 µM; in the assay on OVCAR-5 ovarian, 1.18 µM. In addition, the GI50 in the assay on SF-539 CNS was 1.6 µM; in the assay with SK-MEL-5 melanoma, 1.49 µM; with SNB-19 CNS, 0.797 µM; in the assay on UACC-62 melanoma it was 1.68 µM. For the same compound, the TGI in the assay with HCC-2998 colon came to 3.36 µM; with HOP-62 NSCLC it was 2.96 µM; in the assay with HS 578T breast, 6.14 µM; in the assay with MDA-MB-231 breast, 2.96 µM; in the assay with NCI-H226 lung it was 3.1 µM; in the assay on OVCAR-5 ovarian, 3.72 µM. Besides, the TGI turned out to be 3.09 µM in the assay with SF-539 CNS, 2.84 µM in the assay on SK-MEL-5 melanoma, 7.67 µM with SNB-19 CNS and 3.59 µM in the assay on UACC-62 melanoma.

For the compound `N#Cc1nc(CCC(c2nc(C#N)c(N)o2)N2C(=O)c3ccccc3C2=O)oc1N` (stereo not given), the TGI with HCC-2998 colon, in the assay on HOP-62 NSCLC, in the assay on HS 578T breast, with MDA-MB-231 breast, with NCI-H226 lung and in the assay with OVCAR-5 ovarian was over 100 µM throughout. In addition, the TGI in the assay with SF-539 CNS, in the assay on SK-MEL-5 melanoma, in the assay with SNB-19 CNS and in the assay on UACC-62 melanoma was over 100 µM in each case.

Regarding `O=C1C(NCCN2CCOCC2)=C(Cl)C(=O)c2ncccc21`, the TGI stood at 1.94 µM in the assay with HCC-2998 colon; 3.63 µM in the assay on HOP-62 NSCLC; 2.87 µM with HS 578T breast; 4.71 µM in the assay with MDA-MB-231 breast; 3.64 µM in the assay on NCI-H226 lung; 3.18 µM with OVCAR-5 ovarian. Moreover, the TGI came to 2.53 µM in the assay with SF-539 CNS, 1.1 µM in the assay on SK-MEL-5 melanoma, 2.75 µM in the assay on SNB-19 CNS and 2.17 µM in the assay on UACC-62 melanoma.
